This is an account of results in US20240208992A1, “MACROCYCLES AS CFTR MODULATORS” (Idorsia Pharmaceuticals Ltd, priority 2021, published 2024).

The target of the experiment is human F508del-CFTR (Homo sapiens, UniProt P13569, DEL508-508). Briefly: F508del-CFTR cell surface expression (corrector activity), DiscoveRx ß-galactosidase complementation chemiluminescence assay in recombinant U2OS cell line.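 On all read-outs here: U2OS cells co-expressing ProLink-tagged F508del-CFTR and a membrane-anchored enzyme acceptor, where more surface CFTR restores β-galactosidase activity measured by chemiluminescence.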 Conditions: for EC50: EC50, F508del-CFTR cell surface expression, U2OS cells, 16h compound incubation, geomean values; for Emax: U2OS, in relation to Emax of corrector lumacaftor (=100%), arithmetic mean values.
Chain of human F508del-CFTR (P13569 with tags, fused parts or gaps DEL508-508): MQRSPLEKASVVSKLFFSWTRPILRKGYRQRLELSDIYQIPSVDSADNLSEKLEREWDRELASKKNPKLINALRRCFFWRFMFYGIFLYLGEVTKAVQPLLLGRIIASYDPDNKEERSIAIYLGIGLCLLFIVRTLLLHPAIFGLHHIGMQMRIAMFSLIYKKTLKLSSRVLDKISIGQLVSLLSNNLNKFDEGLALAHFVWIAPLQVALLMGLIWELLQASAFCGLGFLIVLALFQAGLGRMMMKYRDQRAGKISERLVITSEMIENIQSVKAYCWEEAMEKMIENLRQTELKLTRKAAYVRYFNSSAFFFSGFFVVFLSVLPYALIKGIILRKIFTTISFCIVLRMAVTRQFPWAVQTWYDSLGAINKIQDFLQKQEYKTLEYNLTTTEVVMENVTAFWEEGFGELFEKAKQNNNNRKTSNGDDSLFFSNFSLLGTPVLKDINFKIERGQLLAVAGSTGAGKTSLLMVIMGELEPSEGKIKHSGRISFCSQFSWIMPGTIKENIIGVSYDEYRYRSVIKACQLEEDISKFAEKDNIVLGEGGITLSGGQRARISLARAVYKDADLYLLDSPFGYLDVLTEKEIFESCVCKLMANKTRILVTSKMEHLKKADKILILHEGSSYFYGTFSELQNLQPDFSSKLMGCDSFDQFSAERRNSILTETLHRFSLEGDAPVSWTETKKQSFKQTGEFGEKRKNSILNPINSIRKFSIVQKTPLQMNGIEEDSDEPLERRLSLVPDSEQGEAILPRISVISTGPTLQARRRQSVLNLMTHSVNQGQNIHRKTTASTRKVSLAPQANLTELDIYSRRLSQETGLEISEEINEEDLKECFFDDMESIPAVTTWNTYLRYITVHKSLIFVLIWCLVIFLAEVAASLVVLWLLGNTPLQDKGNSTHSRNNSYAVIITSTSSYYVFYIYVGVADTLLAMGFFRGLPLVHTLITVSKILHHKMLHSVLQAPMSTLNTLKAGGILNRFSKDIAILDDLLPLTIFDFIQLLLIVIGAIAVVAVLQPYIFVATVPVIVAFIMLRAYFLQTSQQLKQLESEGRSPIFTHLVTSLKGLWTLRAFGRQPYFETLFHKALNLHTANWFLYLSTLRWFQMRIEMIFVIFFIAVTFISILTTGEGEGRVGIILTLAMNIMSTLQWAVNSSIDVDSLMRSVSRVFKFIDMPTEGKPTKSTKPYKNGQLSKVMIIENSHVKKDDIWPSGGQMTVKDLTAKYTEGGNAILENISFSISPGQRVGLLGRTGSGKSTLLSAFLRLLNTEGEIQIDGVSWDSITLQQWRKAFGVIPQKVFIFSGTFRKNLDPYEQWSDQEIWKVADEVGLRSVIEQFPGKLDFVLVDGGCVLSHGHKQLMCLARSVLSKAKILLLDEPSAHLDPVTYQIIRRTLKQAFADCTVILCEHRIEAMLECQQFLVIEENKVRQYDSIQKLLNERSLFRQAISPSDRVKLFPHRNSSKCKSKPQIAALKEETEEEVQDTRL

SMILES strings stand for the structures.

On to `Cc1cc(CCNC(=O)[C@@H]2CC(=O)N(C)[C@@H](CC(C)C)C(=O)N(C)[C@@H](Cc3cccc4ccccc34)C(=O)N[C@H](Cc3ccccc3)COc3cnc4ccccc4c3C(=O)N2)on1` [Example 695, (3S,7S,10S,13R)-13-benzyl-7-isobutyl-6,9-dimethyl-N-(2-(3-methylisoxazol-5-yl)ethyl)-10-(naphthalen-1-ylmethyl)-1,5,8,11-tetraoxo-1,2,3,4,5,6,7,8,9,10,11,12,13,14-tetradecahydro-[1]oxa[4,7,10,14]tetraazacycloheptadecino[17,16-c]quinoline-3-carboxamide], for which the EC50 was 201 nM and the maximal effect (Emax) is 237%.
On the same counts, the results for `CC(C)C[C@H]1C(=O)N(C)[C@H](CC2CCCCC2)C(=O)N[C@H](Cc2ccccc2)COc2cnc3ccc(F)cc3c2C(=O)N[C@H](C(=O)NCCc2nc(C3CC3)no2)CC(=O)N1C` [Example 696, (3S,7S,10R,13R)-13-benzyl-10-(cyclohexylmethyl)-N-(2-(3-cyclopropyl-1,2,4-oxadiazol-5-yl)ethyl)-20-fluoro-7-isobutyl-6,9-dimethyl-1,5,8,11-tetraoxo-1,2,3,4,5,6,7,8,9,10,11,12,13,14-tetradecahydro-[1]oxa[4,7,10,14]tetraazacycloheptadecino[17,16-c]quinoline-3-carboxamide] are 14 nM and 252%.
The like results for `CC(C)C[C@H]1C(=O)N(C)[C@H](CC2CCCCC2)C(=O)N[C@H](Cc2ccccc2)COc2cnc3ccc(F)cc3c2C(=O)N[C@H](C(=O)NCCc2cc(C3CC3)no2)CC(=O)N1C` [Example 697, (3S,7S,10R,13R)-13-benzyl-10-(cyclohexylmethyl)-N-(2-(3-cyclopropylisoxazol-5-yl)ethyl)-20-fluoro-7-isobutyl-6,9-dimethyl-1,5,8,11-tetraoxo-1,2,3,4,5,6,7,8,9,10,11,12,13,14-tetradecahydro-[1]oxa[4,7,10,14]tetraazacycloheptadecino[17,16-c]quinoline-3-carboxamide] were, in that order, 27 nM and 306%.
On the same counts, the results for `Cc1cc(CCNC(=O)[C@@H]2CC(=O)N(C)[C@@H](CC(C)C)C(=O)N(C)[C@H](Cc3cccc4ccccc34)C(=O)N[C@H](Cc3ccccc3)COc3cnc4ccccc4c3C(=O)N2)on1` [Example 698, (3S,7S,10R,13R)-13-benzyl-7-isobutyl-6,9-dimethyl-N-(2-(3-methylisoxazol-5-yl)ethyl)-10-(naphthalen-1-ylmethyl)-1,5,8,11-tetraoxo-1,2,3,4,5,6,7,8,9,10,11,12,13,14-tetradecahydro-[1]oxa[4,7,10,14]tetraazacycloheptadecino[17,16-c]quinoline-3-carboxamide] are 199 nM and 313%.
With `Cc1cc(CCNC(=O)[C@@H]2CC(=O)N(C)[C@@H](CC(C)C)C(=O)N(C)[C@H](CC(F)F)C(=O)N[C@H](Cc3ccccc3)COc3cnc4ccccc4c3C(=O)N2)on1` [Example 699, (3S,7S,10R,13R)-13-benzyl-10-(2,2-difluoroethyl)-7-isobutyl-6,9-dimethyl-N-(2-(3-methylisoxazol-5-yl)ethyl)-1,5,8,11-tetraoxo-1,2,3,4,5,6,7,8,9,10,11,12,13,14-tetradecahydro-[1]oxa[4,7,10,14]tetraazacycloheptadecino[17,16-c]quinoline-3-carboxamide], the concentration for a half-maximal effect (EC50) turned out to be 299 nM and the Emax was 338%.
On to `CC(C)C[C@H]1C(=O)N(CC2COc3ccccc3C2)CC(=O)N[C@H](Cc2ccccc2)COc2ccc3ccccc3c2C(=O)N[C@H](C(=O)NCCc2ccc3c(c2)OCO3)CC(=O)N1C` (stereo partly drawn) [Example 700, (3S,7S,13R)—N-(2-(Benzo[d][1,3]dioxol-5-yl)ethyl)-13-benzyl-9-(((S)-chroman-3-yl)methyl)-7-isobutyl-6-methyl-1,5,8,11-tetraoxo-1,2,3,4,5,6,7,8,9,10,11,12,13,14-tetradecahydronaphtho[1,2-p][1]oxa[4,7,10,14]tetraazacycloheptadecine-3-carboxamide], for which the 50% effective concentration (EC50) came out at 188 nM and the Emax was 186%.
On the same counts, the results for `COc1cccc(CCNC(=O)[C@@H]2CC(=O)N(C)[C@@H](CC(C)C)C(=O)N(CCC3CCCCC3)CC(=O)N[C@H](Cc3ccccn3)COc3ccc4ccccc4c3C(=O)N2)c1` [Example 701, (3S,7S,13R)-9-(2-cyclohexylethyl)-7-isobutyl-N-(3-methoxyphenethyl)-6-methyl-1,5,8,11-tetraoxo-13-(pyridin-2-ylmethyl)-1,2,3,4,5,6,7,8,9,10,11,12,13,14-tetradecahydronaphtho[1,2-p][1]oxa[4,7,10,14]tetraazacycloheptadecine-3-carboxamide] are 165 nM and 268%.
Consider `Cc1cc(CCNC(=O)[C@@H]2CC(=O)N(C)[C@@H](CC(C)C)C(=O)N(CC3Cc4ccccc4O3)CC(=O)N[C@H](Cc3ccccc3)COc3cnc4ccccc4c3C(=O)N2)on1` (stereo partly drawn) [Example 702, (3S,7S,13R)-13-benzyl-9-((2,3-dihydrobenzofuran-2-yl)methyl)-7-isobutyl-6-methyl-N-(2-(3-methylisoxazol-5-yl)ethyl)-1,5,8,11-tetraoxo-1,2,3,4,5,6,7,8,9,10,11,12,13,14-tetradecahydro-[1]oxa[4,7,10,14]tetraazacycloheptadecino[17,16-c]quinoline-3-carboxamide], for which the EC50 came to 295 nM and the Emax turned out to be 162%.
On the same counts, the results for `Cc1cc(CCNC(=O)[C@@H]2CC(=O)N(C)[C@@H](CC(C)C)C(=O)N(CC[C@@H]3CCCCO3)CC(=O)N[C@H](Cc3csc4ccccc34)COc3cnc4ccccc4c3C(=O)N2)on1` [Example 703, (3S,7S,13R)-13-(benzo[b]thiophen-3-ylmethyl)-7-isobutyl-6-methyl-N-(2-(3-methylisoxazol-5-yl)ethyl)-1,5,8,11-tetraoxo-9-(2-((S)-tetrahydro-2H-pyran-2-yl)ethyl)-1,2,3,4,5,6,7,8,9,10,11,12,13,14-tetradecahydro-[1]oxa[4,7,10,14]tetraazacycloheptadecino[17,16-c]quinoline-3-carboxamide] are 316 nM and 167%.
On to `Cc1cc(CCNC(=O)[C@@H]2CC(=O)N(C)[C@@H](CC(C)C)C(=O)N(C[C@H]3COc4ccccc4C3)CC(=O)N[C@H](Cc3ccccc3)COc3cnc4ccccc4c3C(=O)N2)on1` [Example 704, (3S,7S,13R)-13-benzyl-9-(((S)-chroman-3-yl)methyl)-7-isobutyl-6-methyl-N-(2-(3-methylisoxazol-5-yl)ethyl)-1,5,8,11-tetraoxo-1,2,3,4,5,6,7,8,9,10,11,12,13,14-tetradecahydro-[1]oxa[4,7,10,14]tetraazacycloheptadecino[17,16-c]quinoline-3-carboxamide], for which the EC50 is 398 nM and the maximum response (Emax) was determined as 156%.
As for `Cc1cc(CCNC(=O)[C@@H]2CC(=O)N(C)[C@@H](CC(C)C)C(=O)N(C[C@@H]3COc4ccccc4C3)CC(=O)N[C@H](Cc3ccccc3)COc3cnc4ccccc4c3C(=O)N2)on1` [Example 705, (3S,7S,13R)-13-benzyl-9-(((R)-chroman-3-yl)methyl)-7-isobutyl-6-methyl-N-(2-(3-methylisoxazol-5-yl)ethyl)-1,5,8,11-tetraoxo-1,2,3,4,5,6,7,8,9,10,11,12,13,14-tetradecahydro-[1]oxa[4,7,10,14]tetraazacycloheptadecino[17,16-c]quinoline-3-carboxamide], the 50% effective concentration (EC50) stood at 305 nM and the maximal response (Emax) turned out to be 193%.
On the same counts, the results for `Cc1cc(CCNC(=O)[C@@H]2CC(=O)N(C)[C@@H](CC(C)C)C(=O)N(C[C@H]3CCCC(C)(C)O3)CC(=O)N[C@H](Cc3ccccc3)COc3cnc4ccccc4c3C(=O)N2)on1` [Example 706, (3S,7S,13R)-13-benzyl-9-(((R)-6,6-dimethyltetrahydro-2H-pyran-2-yl)methyl)-7-isobutyl-6-methyl-N-(2-(3-methylisoxazol-5-yl)ethyl)-1,5,8,11-tetraoxo-1,2,3,4,5,6,7,8,9,10,11,12,13,14-tetradecahydro-[1]oxa[4,7,10,14]tetraazacycloheptadecino[17,16-c]quinoline-3-carboxamide] are 707 nM and 162%.
On the same counts, the results for `Cc1cc(CCNC(=O)[C@@H]2CC(=O)N(C)[C@@H](CC(C)C)C(=O)N(C[C@@H]3CCCC(C)(C)O3)CC(=O)N[C@H](Cc3ccccc3)COc3cnc4ccccc4c3C(=O)N2)on1` [Example 707, (3S,7S,13R)-13-benzyl-9-(((S)-6,6-dimethyltetrahydro-2H-pyran-2-yl)methyl)-7-isobutyl-6-methyl-N-(2-(3-methylisoxazol-5-yl)ethyl)-1,5,8,11-tetraoxo-1,2,3,4,5,6,7,8,9,10,11,12,13,14-tetradecahydro-[1]oxa[4,7,10,14]tetraazacycloheptadecino[17,16-c]quinoline-3-carboxamide] are 502 nM and 305%.
On the same counts, the results for `Cc1cc(CCNC(=O)[C@@H]2CC(=O)N(C)[C@@H](CC(C)C)C(=O)N(C)C3(CCCC3)C(=O)N[C@H](Cc3ccccc3)COc3cnc4ccccc4c3C(=O)N2)on1` [Example 708, (3′S,7′S,13′R)-13′-benzyl-7′-isobutyl-6′,9′-dimethyl-N-(2-(3-methylisoxazol-5-yl)ethyl)-1′,5′,8′,11′-tetraoxo-2′,3′,4′,5′,6′,7′,8′,9′,11′,12′,13′,14′-dodecahydro-1′H-spiro[cyclopentane-1,10′-[1]oxa[4,7,10,14]tetraazacycloheptadecino[17,16-c]quinoline]-3′-carboxamide] are 874 nM and 195%.
`Cc1cc(CCNC(=O)[C@@H]2CC(=O)N(C)[C@@H](CC(C)C)C(=O)N(C)[C@H](CC3CCCCC3)C(=O)N[C@H](Cc3ccccc3)COc3cnc4ccccc4c3C(=O)N2)on1` [Example 709, (3S,7S,10R,13R)-13-benzyl-10-(cyclohexylmethyl)-7-isobutyl-6,9-dimethyl-N-(2-(3-methylisoxazol-5-yl)ethyl)-1,5,8,11-tetraoxo-1,2,3,4,5,6,7,8,9,10,11,12,13,14-tetradecahydro-[1]oxa[4,7,10,14]tetraazacycloheptadecino[17,16-c]quinoline-3-carboxamide]: the EC50 came out at 47 nM and the Emax amounted to 284%.
